The supplement of paper PMC10307832

How the values were obtained:
Assay in all cases: relative viability (nuclei count vs DMSO), 5 days (fraction); higher = more cells survive
NCI-H2023 = tested on: NCI-H2023
Procedure, shortened: (§1)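 Nuclei were stained with Hoechst during a one-step fixation (final 0.05% Triton X-100, 1% formaldehyde, 1 ug/ml Hoechst) carried out 5 days after dosing, then counted on 4× images. The cells, lung cancer lines in 1536-well plates, had been dosed by pin tool the day after seeding with one drug alone or a fixed anchor-drug dose plus five library-drug doses (not always all listed) in √10 steps. Relative viability is the nuclei count in treated wells divided by that in vehicle wells, and each value is the median of duplicate plates.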

NCI-H1993 = tested on: NCI-H1993
Procedure, shortened: as §1

NCI-H2009 = tested on: NCI-H2009
Procedure, shortened: as §1

NCI-H2126 = tested on: NCI-H2126
Procedure, shortened: as §1

NCI-H2347 = tested on: NCI-H2347
Procedure, shortened: as §1

EPLC-272H = tested on: EPLC-272H
Procedure, shortened: as §1

NCI-H661 = tested on: NCI-H661
Procedure, shortened: as §1

NCI-H647 = tested on: NCI-H647
Procedure, shortened: as §1

EMC-BAC-2 = tested on: EMC-BAC-2
Procedure, shortened: as §1

SK-LU-1 = tested on: SK-LU-1
Procedure, shortened: as §1

NCI-H1734 = tested on: NCI-H1734
Procedure, shortened: as §1

NCI-H1915 = tested on: NCI-H1915
Procedure, shortened: as §1

H3255 = tested on: H3255
Procedure, shortened: as §1

NCI-H2085 = tested on: NCI-H2085
Procedure, shortened: as §1

NCI-H322M = tested on: NCI-H322M
Procedure, shortened: as §1

NCI-H727 = tested on: NCI-H727
Procedure, shortened: as §1

SW 1573 = tested on: SW 1573
Procedure, shortened: as §1

LXF-289 = tested on: LXF-289
Procedure, shortened: as §1

LCLC-97TM1 = tested on: LCLC-97TM1
Procedure, shortened: as §1

PC-14 = tested on: PC-14
Procedure, shortened: as §1

How did the relative viability (NCI-H2023; first compound 0.0002 µM) turn out when `CC(=O)O[C@@]12CO[C@@H]1C[C@H](O)[C@@]1(C)C(=O)[C@H](O)C3=C(C)[C@@H](OC(=O)[C@H](O)[C@@H](NC(=O)OC(C)(C)C)c4ccccc4)C[C@@](O)([C@@H](OC(=O)c4ccccc4)[C@H]21)C3(C)C` [Docetaxel] + Nc1ncn([C@H]2C[C@H](O)[C@@H](CO)O2)c(=O)n1 [Decitabine] (partner 2 µM) was run?
The relative viability was 0.233.

What about the relative viability (NCI-H2023; first compound 0.000632 µM) of the same compound?
The relative viability was 0.161.

What about the relative viability (NCI-H2023; first compound 0.002 µM) of the same compound?
Its relative viability is 0.102.

What about the relative viability (NCI-H2023; first compound 0.006325 µM) of the same compound?
The relative viability was 0.0989.

What about the relative viability (NCI-H2023; first compound 0.02 µM) of the same compound?
Its relative viability is 0.0701.

And the relative viability (NCI-H1993; first compound 0.0002 µM)?
Its relative viability is 0.608.

And the relative viability (NCI-H1993; first compound 0.000632 µM)?
The relative viability was 0.683.

And the relative viability (NCI-H1993; first compound 0.002 µM)?
The relative viability was 0.646.

What about the relative viability (NCI-H1993; first compound 0.006325 µM) of the same compound?
Its relative viability is 0.585.

And the relative viability (NCI-H1993; first compound 0.02 µM)?
The relative viability was 0.354.

And the relative viability (NCI-H2009; first compound 0.0002 µM)?
Its relative viability is 0.438.

And the relative viability (NCI-H2009; first compound 0.000632 µM)?
The relative viability was 0.376.

What about the relative viability (NCI-H2009; first compound 0.002 µM) of the same compound?
The relative viability was 0.3.

What about the relative viability (NCI-H2009; first compound 0.006325 µM) of the same compound?
Its relative viability is 0.263.

What about the relative viability (NCI-H2009; first compound 0.02 µM) of the same compound?
The relative viability was 0.181.

What about the relative viability (NCI-H2126; first compound 0.0002 µM) of the same compound?
Its relative viability is 0.622.

And the relative viability (NCI-H2126; first compound 0.000632 µM)?
Its relative viability is 0.548.

What about the relative viability (NCI-H2126; first compound 0.002 µM) of the same compound?
Its relative viability is 0.463.

What about the relative viability (NCI-H2126; first compound 0.006325 µM) of the same compound?
Its relative viability is 0.387.

What about the relative viability (NCI-H2347; first compound 0.0002 µM) of the same compound?
Its relative viability is 0.637.

And the relative viability (NCI-H2347; first compound 0.000632 µM)?
The relative viability was 0.633.

And the relative viability (NCI-H2347; first compound 0.002 µM)?
Its relative viability is 0.644.

What about the relative viability (NCI-H2347; first compound 0.006325 µM) of the same compound?
Its relative viability is 0.51.

What about the relative viability (NCI-H2347; first compound 0.02 µM) of the same compound?
Its relative viability is 0.473.

What about the relative viability (EPLC-272H; first compound 0.0002 µM) of the same compound?
Its relative viability is 0.364.

What about the relative viability (EPLC-272H; first compound 0.000632 µM) of the same compound?
The relative viability was 0.308.

What about the relative viability (EPLC-272H; first compound 0.002 µM) of the same compound?
The relative viability was 0.179.

And the relative viability (EPLC-272H; first compound 0.006325 µM)?
Its relative viability is 0.127.

What about the relative viability (EPLC-272H; first compound 0.02 µM) of the same compound?
The relative viability was 0.0741.

What about the relative viability (NCI-H661; first compound 0.0002 µM) of the same compound?
Its relative viability is 0.519.

What about the relative viability (NCI-H661; first compound 0.000632 µM) of the same compound?
The relative viability was 0.575.

What about the relative viability (NCI-H661; first compound 0.002 µM) of the same compound?
The relative viability was 0.606.

What about the relative viability (NCI-H661; first compound 0.006325 µM) of the same compound?
The relative viability was 0.358.

What about the relative viability (NCI-H661; first compound 0.02 µM) of the same compound?
The relative viability was 0.343.

What about the relative viability (NCI-H647; first compound 0.000632 µM) of the same compound?
Its relative viability is 0.468.

What about the relative viability (NCI-H647; first compound 0.002 µM) of the same compound?
Its relative viability is 0.171.

And the relative viability (NCI-H647; first compound 0.006325 µM)?
Its relative viability is 0.153.

And the relative viability (NCI-H647; first compound 0.02 µM)?
The relative viability was 0.109.

And the relative viability (EMC-BAC-2; first compound 0.0002 µM)?
Its relative viability is 0.947.

What about the relative viability (EMC-BAC-2; first compound 0.000632 µM) of the same compound?
The relative viability was 0.811.

And the relative viability (EMC-BAC-2; first compound 0.002 µM)?
The relative viability was 0.461.

And the relative viability (EMC-BAC-2; first compound 0.006325 µM)?
Its relative viability is 0.46.

What about the relative viability (EMC-BAC-2; first compound 0.02 µM) of the same compound?
Its relative viability is 0.299.

What about the relative viability (SK-LU-1; first compound 0.0002 µM) of the same compound?
The relative viability was 0.613.

What about the relative viability (SK-LU-1; first compound 0.000632 µM) of the same compound?
Its relative viability is 0.645.

And the relative viability (SK-LU-1; first compound 0.002 µM)?
The relative viability was 0.524.

And the relative viability (SK-LU-1; first compound 0.006325 µM)?
Its relative viability is 0.378.

And the relative viability (SK-LU-1; first compound 0.02 µM)?
The relative viability was 0.269.

And the relative viability (NCI-H1734; first compound 0.0002 µM)?
The relative viability was 0.492.

What about the relative viability (NCI-H1734; first compound 0.000632 µM) of the same compound?
The relative viability was 0.431.

What about the relative viability (NCI-H1734; first compound 0.002 µM) of the same compound?
Its relative viability is 0.359.

What about the relative viability (NCI-H1734; first compound 0.006325 µM) of the same compound?
Its relative viability is 0.307.

What about the relative viability (NCI-H1734; first compound 0.02 µM) of the same compound?
The relative viability was 0.218.

What about the relative viability (NCI-H1915; first compound 0.0002 µM) of the same compound?
The relative viability was 0.245.

What about the relative viability (NCI-H1915; first compound 0.000632 µM) of the same compound?
Its relative viability is 0.25.

And the relative viability (NCI-H1915; first compound 0.002 µM)?
The relative viability was 0.231.

What about the relative viability (NCI-H1915; first compound 0.006325 µM) of the same compound?
Its relative viability is 0.184.

And the relative viability (NCI-H1915; first compound 0.02 µM)?
The relative viability was 0.124.

And the relative viability (H3255; first compound 0.0002 µM)?
Its relative viability is 0.734.

What about the relative viability (H3255; first compound 0.000632 µM) of the same compound?
Its relative viability is 0.566.

What about the relative viability (H3255; first compound 0.002 µM) of the same compound?
The relative viability was 0.335.

And the relative viability (H3255; first compound 0.006325 µM)?
Its relative viability is 0.31.

What about the relative viability (H3255; first compound 0.02 µM) of the same compound?
The relative viability was 0.27.

And the relative viability (NCI-H2085; first compound 0.0002 µM)?
Its relative viability is 0.539.

What about the relative viability (NCI-H2085; first compound 0.000632 µM) of the same compound?
The relative viability was 0.612.

What about the relative viability (NCI-H2085; first compound 0.002 µM) of the same compound?
Its relative viability is 0.552.

What about the relative viability (NCI-H2085; first compound 0.006325 µM) of the same compound?
Its relative viability is 0.459.

What about the relative viability (NCI-H2085; first compound 0.02 µM) of the same compound?
The relative viability was 0.401.

What about the relative viability (NCI-H322M; first compound 0.0002 µM) of the same compound?
Its relative viability is 0.679.

What about the relative viability (NCI-H322M; first compound 0.000632 µM) of the same compound?
Its relative viability is 0.609.

And the relative viability (NCI-H322M; first compound 0.002 µM)?
The relative viability was 0.613.

What about the relative viability (NCI-H322M; first compound 0.006325 µM) of the same compound?
Its relative viability is 0.653.

And the relative viability (NCI-H322M; first compound 0.02 µM)?
Its relative viability is 0.553.

And the relative viability (NCI-H727; first compound 0.0002 µM)?
The relative viability was 0.738.

What about the relative viability (NCI-H727; first compound 0.000632 µM) of the same compound?
Its relative viability is 0.895.

What about the relative viability (NCI-H727; first compound 0.002 µM) of the same compound?
The relative viability was 0.709.

What about the relative viability (NCI-H727; first compound 0.006325 µM) of the same compound?
The relative viability was 0.663.

And the relative viability (NCI-H727; first compound 0.02 µM)?
The relative viability was 0.788.

What about the relative viability (SW 1573; first compound 0.0002 µM) of the same compound?
The relative viability was 0.387.

And the relative viability (SW 1573; first compound 0.000632 µM)?
The relative viability was 0.296.

And the relative viability (SW 1573; first compound 0.002 µM)?
The relative viability was 0.172.

And the relative viability (SW 1573; first compound 0.006325 µM)?
The relative viability was 0.165.

What about the relative viability (SW 1573; first compound 0.02 µM) of the same compound?
The relative viability was 0.121.

And the relative viability (LXF-289; first compound 0.0002 µM)?
Its relative viability is 0.383.

And the relative viability (LXF-289; first compound 0.000632 µM)?
The relative viability was 0.382.

What about the relative viability (LXF-289; first compound 0.002 µM) of the same compound?
The relative viability was 0.25.

What about the relative viability (LXF-289; first compound 0.006325 µM) of the same compound?
Its relative viability is 0.14.

And the relative viability (LXF-289; first compound 0.02 µM)?
The relative viability was 0.118.

And the relative viability (LCLC-97TM1; first compound 0.0002 µM)?
The relative viability was 0.208.

What about the relative viability (LCLC-97TM1; first compound 0.000632 µM) of the same compound?
Its relative viability is 0.189.

And the relative viability (LCLC-97TM1; first compound 0.002 µM)?
Its relative viability is 0.133.

What about the relative viability (LCLC-97TM1; first compound 0.006325 µM) of the same compound?
Its relative viability is 0.112.

And the relative viability (LCLC-97TM1; first compound 0.02 µM)?
Its relative viability is 0.0836.

What about the relative viability (PC-14; first compound 0.0002 µM) of the same compound?
Its relative viability is 0.175.

What about the relative viability (PC-14; first compound 0.000632 µM) of the same compound?
The relative viability was 0.107.

What about the relative viability (PC-14; first compound 0.002 µM) of the same compound?
Its relative viability is 0.0764.

And the relative viability (PC-14; first compound 0.006325 µM)?
Its relative viability is 0.0588.

And the relative viability (PC-14; first compound 0.02 µM)?
The relative viability was 0.0313.
